# Results: publication PMC4013371 (The Journal of Veterinary Medical Science, 2013)
# Key:
# [1] = CLM 10 mg/kg PO, healthy beagles, not steady state; cited from earlier work
# [2] = Adverse effects during multiple CLM treatment; type: in vivo, healthy beagles (dogs); settings: CLM about 10 mg/kg PO twice daily for ten days; three healthy beagles
structure (smiles),measurement,setting,value
"CC[C@H]1OC(=O)[C@H](C)[C@@H](O[C@H]2C[C@@](C)(OC)[C@@H](O)[C@H](C)O2)[C@H](C)[C@@H](O[C@@H]2O[C@H](C)C[C@H](N(C)C)[C@H]2O)[C@](C)(OC)C[C@@H](C)C(=O)[C@H](C)[C@@H](O)[C@]1(C)O [CLM, Clarithromycin]",serum concentrations,[1],approximately 3 µg/ml
same,"adverse effects associated with CLM, such as gastrointestinal irritation",[2],no adverse effects
